Laboratory results as given in the supplement of paper PMC10307832.

What was measured:
Assay in all cases: relative viability (nuclei count vs DMSO), 5 days (fraction); higher = more cells survive
Vorinostat + Foretinib = compound: O=C(CCCCCCC(=O)Nc1ccccc1)NO [Vorinostat] + COc1cc2c(Oc3ccc(NC(=O)C4(C(=O)Nc5ccc(F)cc5)CC4)cc3F)ccnc2cc1OCCCN1CCOCC1 [Foretinib] (partner 0.25 µM)
In short: (§1)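 After 5 days of treatment, lung cancer cells in 1536-well plates were fixed and stained in a single step (final 0.05% Triton X-100, 1% formaldehyde, 1 ug/ml Hoechst) and their nuclei counted on 4× images. Treatment had been applied by pin tool the day after seeding as one drug alone or as a fixed anchor-drug dose with five library-drug doses (not always all listed) in √10 steps. Relative viability is the nuclei count of treated wells divided by that of vehicle wells, and values are medians of duplicate plates.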

Vorinostat + Tozasertib = compound: O=C(CCCCCCC(=O)Nc1ccccc1)NO [Vorinostat] + Cc1cc(Nc2cc(N3CCN(C)CC3)nc(Sc3ccc(NC(=O)C4CC4)cc3)n2)n[nH]1 [Tozasertib] (partner 0.1 µM)
In short: as §1

Vorinostat + Decitabine = compound: O=C(CCCCCCC(=O)Nc1ccccc1)NO [Vorinostat] + Nc1ncn([C@H]2C[C@H](O)[C@@H](CO)O2)c(=O)n1 [Decitabine] (partner 2 µM)
In short: as §1

Vorinostat + Pemetrexed = compound: O=C(CCCCCCC(=O)Nc1ccccc1)NO [Vorinostat] + Nc1nc2[nH]cc(CCc3ccc(C(=O)N[C@@H](CCC(=O)O)C(=O)O)cc3)c2c(=O)[nH]1 [Pemetrexed] (partner 0.2 µM)
In short: as §1

Vorinostat + AZD7762 = compound: O=C(CCCCCCC(=O)Nc1ccccc1)NO [Vorinostat] + NC(=O)Nc1cc(-c2cccc(F)c2)sc1C(=O)N[C@H]1CCCNC1 [AZD7762] (partner 0.2 µM)
In short: as §1

Vorinostat + Bortezomib = compound: O=C(CCCCCCC(=O)Nc1ccccc1)NO [Vorinostat] + CC(C)C[C@H](NC(=O)[C@H](Cc1ccccc1)NC(=O)c1cnccn1)B(O)O [Bortezomib] (partner 0.002 µM)
In short: as §1

Vorinostat + Palbociclib = compound: O=C(CCCCCCC(=O)Nc1ccccc1)NO [Vorinostat] + CC(=O)c1c(C)c2cnc(Nc3ccc(N4CCNCC4)cn3)nc2n(C2CCCC2)c1=O [Palbociclib] (partner 0.5 µM)
In short: as §1

Vorinostat + Dasatinib = compound: O=C(CCCCCCC(=O)Nc1ccccc1)NO [Vorinostat] + Cc1nc(Nc2ncc(C(=O)Nc3c(C)cccc3Cl)s2)cc(N2CCN(CCO)CC2)n1 [Dasatinib] (partner 0.075 µM)
In short: as §1

Vorinostat + Trametinib = compound: O=C(CCCCCCC(=O)Nc1ccccc1)NO [Vorinostat] + CC(=O)Nc1cccc(-n2c(=O)n(C3CC3)c(=O)c3c(Nc4ccc(I)cc4F)n(C)c(=O)c(C)c32)c1 [Trametinib] (partner 0.02 µM)
In short: as §1

Vorinostat + Navitoclax = compound: O=C(CCCCCCC(=O)Nc1ccccc1)NO [Vorinostat] + CC1(C)CCC(c2ccc(Cl)cc2)=C(CN2CCN(c3ccc(C(=O)NS(=O)(=O)c4ccc(N[C@H](CCN5CCOCC5)CSc5ccccc5)c(S(=O)(=O)C(F)(F)F)c4)cc3)CC2)C1 [Navitoclax] (partner 0.5 µM)
In short: as §1

Vorinostat + OSI-027 = compound: O=C(CCCCCCC(=O)Nc1ccccc1)NO [Vorinostat] + COc1cccc2cc(-c3nc([C@H]4CC[C@H](C(=O)O)CC4)n4ncnc(N)c34)[nH]c12 [OSI-027] (partner 0.5 µM)
In short: as §1

Vorinostat + Olaparib = compound: O=C(CCCCCCC(=O)Nc1ccccc1)NO [Vorinostat] + O=C(c1cc(Cc2n[nH]c(=O)c3ccccc23)ccc1F)N1CCN(C(=O)C2CC2)CC1 [Olaparib] (partner 8 µM)
In short: as §1

Vorinostat + Luminespib = compound: O=C(CCCCCCC(=O)Nc1ccccc1)NO [Vorinostat] + CCNC(=O)c1noc(-c2cc(C(C)C)c(O)cc2O)c1-c1ccc(CN2CCOCC2)cc1 [Luminespib] (partner 0.01 µM)
In short: as §1

Vorinostat + Crizotinib = compound: O=C(CCCCCCC(=O)Nc1ccccc1)NO [Vorinostat] + C[C@@H](Oc1cc(-c2cnn(C3CCNCC3)c2)cnc1N)c1c(Cl)ccc(F)c1Cl [Crizotinib] (partner 1 µM)
In short: as §1

Vorinostat + Phenformin = compound: O=C(CCCCCCC(=O)Nc1ccccc1)NO [Vorinostat] + N=C(N)NC(=N)NCCc1ccccc1 [Phenformin] (partner 250 µM)
In short: as §1

Vorinostat + Pictilisib = compound: O=C(CCCCCCC(=O)Nc1ccccc1)NO [Vorinostat] + CS(=O)(=O)N1CCN(Cc2cc3nc(-c4cccc5[nH]ncc45)nc(N4CCOCC4)c3s2)CC1 [Pictilisib] (partner 1 µM)
In short: as §1

Vorinostat = compound: O=C(CCCCCCC(=O)Nc1ccccc1)NO [Vorinostat]
In short: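 A plate was accepted only when its control CV was below 25% and the cells had doubled at least once. Viability is defined from nuclear counts as treated wells divided by vehicle wells, with the median taken across plates. That median covers lung cancer cell lines grown in 1536-well plates, dosed by pinning at five √10-spaced library-drug concentrations, and counted in MetaXpress from 4× Hoechst images after 5 days.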

Q: How did the relative viability (Vorinostat + Foretinib; first compound 0.253 µM) turn out when ChaGo-K-1 was run?
A: 1

Q: And the relative viability (Vorinostat + Foretinib; first compound 0.8 µM)?
A: 0.863

Q: And the relative viability (Vorinostat + Foretinib; first compound 2.53 µM)?
A: 0.559

Q: What about the relative viability (Vorinostat + Foretinib; first compound 8 µM) of the same cell line?
A: 0.189

Q: What about the relative viability (Vorinostat + Tozasertib; first compound 0.253 µM) of the same cell line?
A: 0.221

Q: And the relative viability (Vorinostat + Tozasertib; first compound 0.8 µM)?
A: 0.213

Q: And the relative viability (Vorinostat + Tozasertib; first compound 2.53 µM)?
A: 0.191

Q: What about the relative viability (Vorinostat + Tozasertib; first compound 8 µM) of the same cell line?
A: 0.164

Q: What about the relative viability (Vorinostat + Decitabine; first compound 0.253 µM) of the same cell line?
A: 0.508

Q: And the relative viability (Vorinostat + Decitabine; first compound 0.8 µM)?
A: 0.516

Q: And the relative viability (Vorinostat + Decitabine; first compound 2.53 µM)?
A: 0.389

Q: And the relative viability (Vorinostat + Decitabine; first compound 8 µM)?
A: 0.202

Q: And the relative viability (Vorinostat + Pemetrexed; first compound 0.253 µM)?
A: 0.254

Q: And the relative viability (Vorinostat + Pemetrexed; first compound 0.8 µM)?
A: 0.26

Q: What about the relative viability (Vorinostat + Pemetrexed; first compound 2.53 µM) of the same cell line?
A: 0.254

Q: And the relative viability (Vorinostat + Pemetrexed; first compound 8 µM)?
A: 0.218

Q: And the relative viability (Vorinostat + AZD7762; first compound 0.253 µM)?
A: 0.862

Q: What about the relative viability (Vorinostat + AZD7762; first compound 0.8 µM) of the same cell line?
A: 0.867

Q: What about the relative viability (Vorinostat + AZD7762; first compound 2.53 µM) of the same cell line?
A: 0.567

Q: And the relative viability (Vorinostat + AZD7762; first compound 8 µM)?
A: 0.173

Q: And the relative viability (Vorinostat + Bortezomib; first compound 0.253 µM)?
A: 0.954

Q: And the relative viability (Vorinostat + Bortezomib; first compound 0.8 µM)?
A: 0.932

Q: And the relative viability (Vorinostat + Bortezomib; first compound 2.53 µM)?
A: 0.467

Q: And the relative viability (Vorinostat + Bortezomib; first compound 8 µM)?
A: 0.282

Q: What about the relative viability (Vorinostat + Palbociclib; first compound 0.253 µM) of the same cell line?
A: 0.943

Q: What about the relative viability (Vorinostat + Palbociclib; first compound 0.8 µM) of the same cell line?
A: 0.874

Q: And the relative viability (Vorinostat + Palbociclib; first compound 2.53 µM)?
A: 0.529

Q: What about the relative viability (Vorinostat + Palbociclib; first compound 8 µM) of the same cell line?
A: 0.182

Q: And the relative viability (Vorinostat + Dasatinib; first compound 0.253 µM)?
A: 0.656

Q: And the relative viability (Vorinostat + Dasatinib; first compound 0.8 µM)?
A: 0.568

Q: What about the relative viability (Vorinostat + Dasatinib; first compound 2.53 µM) of the same cell line?
A: 0.444

Q: And the relative viability (Vorinostat + Dasatinib; first compound 8 µM)?
A: 0.246

Q: And the relative viability (Vorinostat + Trametinib; first compound 0.253 µM)?
A: 0.973

Q: And the relative viability (Vorinostat + Trametinib; first compound 0.8 µM)?
A: 0.792

Q: What about the relative viability (Vorinostat + Trametinib; first compound 2.53 µM) of the same cell line?
A: 0.5

Q: What about the relative viability (Vorinostat + Trametinib; first compound 8 µM) of the same cell line?
A: 0.193

Q: And the relative viability (Vorinostat + Navitoclax; first compound 0.253 µM)?
A: 1.01

Q: What about the relative viability (Vorinostat + Navitoclax; first compound 0.8 µM) of the same cell line?
A: 0.92

Q: What about the relative viability (Vorinostat + Navitoclax; first compound 2.53 µM) of the same cell line?
A: 0.582

Q: What about the relative viability (Vorinostat + Navitoclax; first compound 8 µM) of the same cell line?
A: 0.276

Q: What about the relative viability (Vorinostat + OSI-027; first compound 0.253 µM) of the same cell line?
A: 0.553

Q: And the relative viability (Vorinostat + OSI-027; first compound 0.8 µM)?
A: 0.484

Q: What about the relative viability (Vorinostat + OSI-027; first compound 2.53 µM) of the same cell line?
A: 0.319

Q: And the relative viability (Vorinostat + OSI-027; first compound 8 µM)?
A: 0.176

Q: And the relative viability (Vorinostat + Olaparib; first compound 0.253 µM)?
A: 0.46

Q: And the relative viability (Vorinostat + Olaparib; first compound 0.8 µM)?
A: 0.34

Q: And the relative viability (Vorinostat + Olaparib; first compound 2.53 µM)?
A: 0.219

Q: What about the relative viability (Vorinostat + Olaparib; first compound 8 µM) of the same cell line?
A: 0.141

Q: What about the relative viability (Vorinostat + Luminespib; first compound 0.253 µM) of the same cell line?
A: 0.82

Q: And the relative viability (Vorinostat + Luminespib; first compound 0.8 µM)?
A: 0.804

Q: And the relative viability (Vorinostat + Luminespib; first compound 2.53 µM)?
A: 0.417

Q: And the relative viability (Vorinostat + Luminespib; first compound 8 µM)?
A: 0.165

Q: What about the relative viability (Vorinostat + Crizotinib; first compound 0.253 µM) of the same cell line?
A: 1.23

Q: And the relative viability (Vorinostat + Crizotinib; first compound 0.8 µM)?
A: 0.98

Q: What about the relative viability (Vorinostat + Crizotinib; first compound 2.53 µM) of the same cell line?
A: 0.408

Q: What about the relative viability (Vorinostat + Crizotinib; first compound 8 µM) of the same cell line?
A: 0.261

Q: And the relative viability (Vorinostat + Phenformin; first compound 0.253 µM)?
A: 0.551

Q: And the relative viability (Vorinostat + Phenformin; first compound 0.8 µM)?
A: 0.538

Q: And the relative viability (Vorinostat + Phenformin; first compound 2.53 µM)?
A: 0.45

Q: And the relative viability (Vorinostat + Phenformin; first compound 8 µM)?
A: 0.183

Q: And the relative viability (Vorinostat + Pictilisib; first compound 0.253 µM)?
A: 0.832

Q: What about the relative viability (Vorinostat + Pictilisib; first compound 0.8 µM) of the same cell line?
A: 0.597

Q: What about the relative viability (Vorinostat + Pictilisib; first compound 2.53 µM) of the same cell line?
A: 0.345

Q: What about the relative viability (Vorinostat + Pictilisib; first compound 8 µM) of the same cell line?
A: 0.246

Q: What about the relative viability (Vorinostat; 0.253 µM) of the same cell line?
A: 1.09

Q: What about the relative viability (Vorinostat; 0.8 µM) of the same cell line?
A: 0.858

Q: What about the relative viability (Vorinostat; 1 µM, anchor plate) of the same cell line?
A: 0.759

Q: And the relative viability (Vorinostat; 2.53 µM)?
A: 0.761

Q: What about the relative viability (Vorinostat; 8 µM) of the same cell line?
A: 0.343
